From ChEMBL document CHEMBL1201862, “PubChem BioAssay data set” (2004)
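Where inhibition never reached the appropriate level, the endpoint shown equals the highest concentration tested. Otherwise, values were interpolated linearly from a five-concentration, 48-hour dose response in 96-well plates. GI50 is the concentration that inhibits growth by half.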 Calls of active or inactive are those of the source. Cut-off read from the data, not from the text of the source: active = GI50 up to about 1.1 µM and inactive = higher.

Key:
Assay in all cases: NCI-60 cell line screen, 48 h
[1] = tested on: SK-MEL-5
[2] = tested on: SW-620
[3] = tested on: RXF 393
[4] = tested on: SK-MEL-28
[5] = tested on: K562
[6] = tested on: HCT-15
[7] = tested on: HL-60
[8] = tested on: UACC-62
[9] = tested on: NCI-H460
[10] = tested on: OVCAR-8
[11] = tested on: HCC 2998
[12] = tested on: 786-0
[13] = tested on: HOP-92
[14] = tested on: EKVX
[15] = tested on: Malme-3M
[16] = tested on: MDA-MB-231
[17] = tested on: T47D
[18] = tested on: DU-145
[19] = tested on: NCI/ADR-RES
[20] = tested on: BT-549

Row | SMILES | GI50 [1] | GI50 [2] | GI50 [3] | GI50 [4] | GI50 [5] | GI50 [6] | GI50 [7] | GI50 [8] | GI50 [9] | GI50 [10] | GI50 [11] | GI50 [12] | GI50 [13] | GI50 [14] | GI50 [15] | GI50 [16] | GI50 [17] | GI50 [18] | GI50 [19] | GI50 [20]
1 | C1COCCSC2=C(SCCO1)SC(=C1SC3=C(SCCOCCOCCS3)S1)S2 | > 100 µM (inactive) | > 100 µM (inactive) | 32.8 µM (inactive) | > 100 µM (inactive) | > 100 µM (inactive) | > 100 µM | > 100 µM (inactive) | > 100 µM (inactive) | 96.4 µM (inactive) | 53.5 µM (inactive) | > 100 µM (inactive) | 45.8 µM (inactive) | 44.7 µM (inactive) | > 100 µM (inactive) | 98.9 µM (inactive) |  |  |  |  | 
2 | O=C1NC2(NC(=O)C1=O)Nc1ccccc1S2 | 32.7 µM (inactive) | 12.9 µM (inactive) | > 54.6 µM (inactive) | 43.5 µM (inactive) | 39.8 µM (inactive) | 33.7 µM | 21.6 µM (inactive) | 23.8 µM (inactive) | 51.5 µM (inactive) | 58.7 µM (inactive) | > 65.5 µM (inactive) | 21.7 µM (inactive) | > 100 µM (inactive) | > 100 µM (inactive) | 97.1 µM (inactive) |  |  |  |  | 
3 | O=C(/C=C/c1ccc(O)cc1)c1ccc2c(c1)OCO2 | 16 µM (inactive) | 19.1 µM (inactive) | 19.3 µM (inactive) | 20.9 µM (inactive) | 20.6 µM (inactive) | 26.1 µM | 12.1 µM (inactive) | 18.7 µM (inactive) | 26.2 µM (inactive) | 15.2 µM (inactive) | 20.8 µM (inactive) | 18 µM (inactive) | 22.4 µM (inactive) | 36.2 µM (inactive) | 31.8 µM (inactive) | 17.5 µM (inactive) | 26.6 µM (inactive) | 33.4 µM (inactive) | 25.1 µM (inactive) | 
4 | NS(=O)(=O)c1ccc(NC(=S)NC=C2C(=O)c3ccccc3C2=O)cc1 | 47 µM (inactive) | > 100 µM (inactive) | 43.6 µM (inactive) | > 100 µM (inactive) | 35.8 µM (inactive) | 38.9 µM | > 100 µM (inactive) | 56.2 µM (inactive) | > 100 µM (inactive) |  | 38.3 µM (inactive) | > 100 µM (inactive) | 23.7 µM (inactive) | > 100 µM (inactive) | > 100 µM (inactive) | 23.7 µM (inactive) | 30.8 µM (inactive) | 94 µM (inactive) |  | 
5 | COc1c(-c2cc(C)c(Cl)c(=O)[nH]2)c(O)c(OC)c2occc12 | 78.3 µM (inactive) | > 100 µM (inactive) | 52.2 µM (inactive) | > 100 µM (inactive) | > 100 µM (inactive) | > 100 µM | > 100 µM (inactive) | 64 µM (inactive) | > 100 µM (inactive) | > 100 µM (inactive) | > 100 µM (inactive) | > 100 µM (inactive) | 23.1 µM (inactive) | > 100 µM (inactive) | > 100 µM (inactive) | 75.9 µM (inactive) | > 100 µM (inactive) | > 100 µM (inactive) | > 100 µM (inactive) | 
6 | C#CCOCn1cnc2c(S)ncnc21 | > 100 µM (inactive) | > 100 µM (inactive) | > 100 µM (inactive) | > 100 µM (inactive) | > 100 µM (inactive) | > 100 µM | > 100 µM (inactive) | > 100 µM (inactive) | > 100 µM (inactive) | > 100 µM (inactive) | > 100 µM (inactive) | > 100 µM (inactive) | > 100 µM (inactive) | > 100 µM (inactive) | > 100 µM (inactive) |  |  |  |  | 
7 | COc1cccc(Nc2nc3c([nH]2)c(=O)n(C)c(=O)n3C)c1 | > 10 µM (inactive) | > 10 µM (inactive) | 7.01 µM (inactive) | > 10 µM (inactive) | > 10 µM (inactive) | > 10 µM | > 10 µM (inactive) | > 10 µM (inactive) |  | > 10 µM (inactive) | > 10 µM (inactive) | > 10 µM (inactive) | > 10 µM (inactive) | > 10 µM (inactive) | > 10 µM (inactive) | > 10 µM (inactive) | > 10 µM (inactive) | > 10 µM (inactive) |  | 
8 | O=c1[nH]c(Nc2cccc(C(F)(F)F)c2)nc2[nH]cnc12 | 40.1 µM (inactive) | > 100 µM (inactive) | > 100 µM (inactive) | > 100 µM (inactive) | > 100 µM (inactive) | > 100 µM | > 100 µM (inactive) |  |  | > 100 µM (inactive) | > 100 µM (inactive) | > 100 µM (inactive) | > 100 µM (inactive) | > 100 µM (inactive) | > 100 µM (inactive) | > 100 µM (inactive) | > 100 µM (inactive) | > 100 µM (inactive) | > 100 µM (inactive) | 
9 | Nc1cc2c(C3OC(CO)C(O)C3O)n[nH]c2c(=S)[nH]1 (stereo not drawn) | > 100 µM (inactive) | > 100 µM (inactive) | 32.7 µM (inactive) | > 100 µM (inactive) | > 100 µM (inactive) | 94 µM | 41.2 µM (inactive) | > 100 µM (inactive) | > 100 µM (inactive) | > 100 µM (inactive) | > 100 µM (inactive) | > 100 µM (inactive) | > 100 µM (inactive) | > 100 µM (inactive) | > 100 µM (inactive) |  |  |  |  | 
10 | CCCCCN(CCCCC)C(=O)[C@H](CCC(=O)O)NC(=O)c1cc2ccccc2[nH]1 |  | > 100 µM (inactive) | 33.3 µM (inactive) | 29.8 µM (inactive) | 34.8 µM (inactive) | 54.8 µM | 29.3 µM (inactive) | 28.1 µM (inactive) | 39.3 µM (inactive) | 77.1 µM (inactive) | 33.4 µM (inactive) | 92.7 µM (inactive) | 32.3 µM (inactive) | > 100 µM (inactive) | 94.8 µM (inactive) |  |  |  |  | 
11 | CCN(CC)CCN(C(=O)C(C)(C)C)c1ccccc1N | > 100 µM (inactive) | > 100 µM (inactive) | > 100 µM (inactive) | > 100 µM (inactive) | > 100 µM (inactive) | > 100 µM | > 100 µM (inactive) | > 100 µM (inactive) | > 100 µM (inactive) | > 100 µM (inactive) |  | > 100 µM (inactive) | > 100 µM (inactive) | > 100 µM (inactive) | > 100 µM (inactive) |  |  | > 100 µM (inactive) | > 100 µM (inactive) | > 100 µM (inactive)
12 | COC(=O)CCC(=O)c1ccc2c(c1)CC1(C2)Cc2ccc(C(=O)CCC(=O)OC)cc2C1 | 17.3 µM (inactive) |  | > 100 µM (inactive) |  | 29.9 µM (inactive) | > 100 µM | 56.2 µM (inactive) | > 100 µM (inactive) |  | 73.6 µM (inactive) | > 100 µM (inactive) | 30.8 µM (inactive) | > 100 µM (inactive) | > 100 µM (inactive) | > 100 µM (inactive) | 60.1 µM (inactive) | 56 µM (inactive) |  | 37.4 µM (inactive) | 
13 | COc1cc(CNc2nc3ccccc3n2Cc2ccccc2)cc(CN2CCOCC2)c1O | 18.6 µM (inactive) | 45.6 µM (inactive) | 18.2 µM (inactive) | 18.4 µM (inactive) | 21.5 µM (inactive) | 29.6 µM |  | 22.9 µM (inactive) | 50.9 µM (inactive) | 32.1 µM (inactive) | 33.9 µM (inactive) | 16.7 µM (inactive) | 12.1 µM (inactive) | 53.3 µM (inactive) | 19.1 µM (inactive) | 18.7 µM (inactive) | > 100 µM (inactive) | 80.9 µM (inactive) | 23 µM (inactive) | 
14 | CC(=O)OCC1OC(n2cc(I)c(=O)[nH]c2=O)C(OC(C)=O)C(OC(C)=O)C1OC(C)=O (stereo not drawn) | > 100 µM (inactive) | > 100 µM (inactive) | > 100 µM (inactive) | > 100 µM (inactive) | > 100 µM (inactive) | > 100 µM | > 100 µM (inactive) | > 100 µM (inactive) | > 100 µM (inactive) | > 100 µM (inactive) | > 100 µM (inactive) | > 100 µM (inactive) | > 100 µM (inactive) | > 100 µM (inactive) | > 100 µM (inactive) |  |  |  |  | 
15 | COc1ccc(/C(C)=C2\CCCN(Cc3ccccc3)C2)cc1 | 17.5 µM (inactive) | 19.1 µM (inactive) | 18.6 µM (inactive) | 22 µM (inactive) | 24 µM (inactive) | 20.3 µM | 23.2 µM (inactive) | 19.8 µM (inactive) | 22.4 µM (inactive) | 18.3 µM (inactive) | 21 µM (inactive) | 19.2 µM (inactive) | 17.7 µM (inactive) | 37.1 µM (inactive) | 19.2 µM (inactive) | 21.4 µM (inactive) | 22.5 µM (inactive) | 34.6 µM (inactive) | 22.6 µM (inactive) | 
16 | CCOC(=O)C(Cc1ccc2c(c1)CCC2)Cc1ccc2c(c1)CCC2 | 18.5 µM (inactive) | > 100 µM (inactive) | > 100 µM (inactive) | > 100 µM (inactive) | 26.5 µM (inactive) | > 100 µM | 25.9 µM (inactive) |  | > 100 µM (inactive) | > 100 µM (inactive) | 95.9 µM (inactive) | > 100 µM (inactive) | > 100 µM (inactive) | 91 µM (inactive) | > 100 µM (inactive) | > 100 µM (inactive) | 53.1 µM (inactive) | > 100 µM (inactive) | 73.1 µM (inactive) | 
17 | O=C(Nc1ccc(Cl)cc1)NS(=O)(=O)c1c(-c2ccccc2)oc2ccccc2c1=O | > 100 µM (inactive) | > 100 µM (inactive) | > 100 µM (inactive) | > 100 µM (inactive) | 48 µM (inactive) | 50.6 µM | 61.7 µM (inactive) | 1.97 µM (inactive) | 47.4 µM (inactive) | 59.3 µM (inactive) | 54.2 µM (inactive) | > 100 µM (inactive) | 89.3 µM (inactive) | > 100 µM (inactive) | > 100 µM (inactive) |  | 48 µM (inactive) | 27.9 µM (inactive) | 86.3 µM (inactive) | 
